Active and inactive are the calls of the source. How the calls were made is not given here. Where a SMILES comes first, the peptide text is derived from it. The star is where a group is joined. Cbz = O=C(OCc1ccccc1)*
How the values were obtained:
[1] = system: M. tuberculosis H37Rv growth inhibition, no glycerol; assay: M. tuberculosis growth inhibition, confirmation, H37Rv, purified and synthesized compounds (AID 493181); details: for IC90: 90% growth inhibition concentration
[2] = as above; details: M. tuberculosis H37Rv growth inhibition, no glycerol; at 100 µM (top of the series)

Structure (SMILES) | IC50 [1] | IC90 [1] | inhibition [2]
c1ccc(/N=C2\N=C(Nc3ccccn3)c3ccccc32)nc1 | < 200 nM | < 200 nM | –
CC(C)NC(=O)c1sc(=S)n2c1[nH]c(=O)c1ccc(C(=O)NCCc3ccc(Cl)cc3)cc12 | < 200 nM | 1510 nM | –
Oc1ccccc1/C=N/Nc1ccnc(SCc2ccccc2)n1 | – | – | 0.65% (inactive)
CCOC(=O)CNC(=O)[C@H](Cc1ccccc1)NC(=O)OCc1ccccc1 (Cbz-Phe-Gly-OEt) | 1410 nM | 2110 nM | –
O=C(CSc1nc2ccccc2c(=O)[nH]1)NC1CCCCC1 | < 200 nM | < 200 nM | –
S=c1nc[nH]c2nc[nH]c12 | 1500 nM | 1650 nM | –
O=C(/C=C\c1cccs1)N1CCN(Cc2ccc3c(c2)OCO3)CC1 | < 200 nM | 2780 nM | –
O=C(CSc1nc2ccccc2c(=O)[nH]1)NCc1ccc(Cl)cc1 | 390 nM | 1820 nM | –
CNc1nc(SCc2ccccc2Cl)nc2c1CCCC2 | < 200 nM | 2320 nM | –
Cc1ccc(NC(=O)C2C3/C=C\CCCCC32)cc1C (centres undefined) | 1480 nM | 1680 nM | –
Cc1ccc2ccc3ccc(C)nc3c2n1 | < 200 nM | 920 nM | –
CCOC(=O)COc1ccc(/C=C2\NC(=S)N(CC)C2=O)cc1 | 1930 nM | 3450 nM | –
CC(=NCc1ccc2c(c1)OCO2)C1=C(O)c2ccccc2C1=O | < 200 nM | 2600 nM | –
O=C(/C=C/c1ccccc1)N1CCN(CCN2C(=O)c3cccc4cccc(c34)C2=O)CC1 | 3170 nM | > 100000 nM | –
COC(=O)C(C)Oc1ccc(-c2nccc(-c3ccccn3)n2)cc1 (centres undefined) | 1490 nM | 3310 nM | –
CCc1ccc(/C=C2/C(=O)N(C)C(=S)N2CC(=O)OC)s1 | 2950 nM | 7160 nM | –
CCC(C)Nc1ccc(NC(C)CC)cc1 (centres undefined) | 1100 nM | 1500 nM | –
CCOC(=O)C(C)Sc1ncnc2c1nnn2-c1ccc(F)cc1 (centres undefined) | 1380 nM | 3380 nM | –
Cc1nc(SCC(=O)NC2CCCCC2)[nH]c(=O)c1C | < 200 nM | 540 nM | –
COC(=O)CCc1nc2c(C#N)c(-c3ccc(Cl)cc3)ccn2n1 | 760 nM | 7910 nM | –
Cc1cccc(/C=C/C(=O)c2ccc([N+](=O)[O-])o2)c1 | < 200 nM | < 200 nM | –
O=C1C(Br)=Cc2cccc3cccc1c23 | < 200 nM | < 200 nM | –
Cc1nn2c(NCc3ccccn3)cc(C(C)C)nc2c1-c1ccccc1 | 1480 nM | 2670 nM | –
COc1cc(NC(=O)C/C(C)=N/NC(=O)c2ccccn2)c(OC)cc1Cl | 3690 nM | 8340 nM | –
COC(=O)C1CC(=O)N(c2ccc(OCc3ccccc3Cl)cc2)C1 (centres undefined) | 830 nM | 8400 nM | –
O=C(NCC(c1cccs1)N1CCOCC1)c1cc([N+](=O)[O-])cc([N+](=O)[O-])c1 (centres undefined) | < 200 nM | 780 nM | –
CCOC(=O)c1ccc(NC(=O)Cn2ncc(Cl)c(Cl)c2=O)cc1 | < 200 nM | 1550 nM | –
CCOC(=O)COn1c2c(c3c4no[n+]([O-])c4ccc31)CCCC2 | 2140 nM | 3780 nM | –
Cc1ccc2c(c1)c(C1=c3ccccc3=NC1=O)c(O)n2C | 840 nM | 1470 nM | –
COC(=O)c1cc(=O)n(-c2ccc(F)cc2)c(=Nc2ccc(F)cc2)s1 | < 200 nM | 4510 nM | –

Reference: PubChem BioAssay AID493181 (Southern Research Specialized Biocontainment Screening …, 2011)
